In patent US20220289794A1, “SYNTHETIC ANTIMICROBIAL PEPTIDES” (priority 2019, published 2022):

Legend:
[1] = system: Escherichia coli (ATCC 25922); details: E. coli ATCC 25922
[2] = system: Enterococcus faecalis ATCC 51575; details: E. faecalis ATCC 51575
B. subtilis (ATCC-6633) = assay: Broad-spectrum activity against Gram-Positive bacteria (MIC); type: cell-based; set-up: unit not given here
[3] = system: Enterococcus faecalis ATCC 29212; details: E. faecalis ATCC 29212
E. coli (ATCC BAA-2452) = assay: Broad-spectrum activity against Gram-Negative bacteria (MIC); type: cell-based; details: Table 16, Gram-negative panel
[4] = system: Streptococcus pneumoniae ATCC 51938; details: S. pneumoniae ATCC 51938
[5] = system: P. aeruginosa (ATCC BAA-1744); assay: Broad-spectrum activity against Gram-Negative bacteria (MIC); type: cell-based; details: Table 16, Gram-negative panel
B. cereus (ATCC-13061) = assay: Broad-spectrum activity against Gram-Positive bacteria (MIC); type: cell-based; set-up: unit not given here
[6] = system: Pseudomonas aeruginosa (ATCC 27883); details: P. aeruginosa ATCC 27883
[7] = system: Klebsiella pneumoniae (ATCC BAA-1705); details: Table 16, Gram-negative panel
[8] = system: A. baumannii (ATCC BAA-1605); assay: Broad-spectrum activity against Gram-Negative bacteria (MIC); type: cell-based; details: Table 16, Gram-negative panel
[9] = system: Klebsiella pneumoniae ATCC 13883; details: Table 16, Gram-negative panel
[10] = system: P. aeruginosa (ATCC 10145); assay: Broad-spectrum activity against Gram-Negative bacteria (MIC); type: cell-based; details: Table 16, Gram-negative panel
[11] = system: Enterococcus faecium ATCC 27270; details: E. faecium ATCC 27270
[12] = system: Methicillin-resistant Staphylococcus aureus MRSA (ATCC BAA-1556); details: MRSA ATCC BAA-1556
[13] = system: Enterococcus faecium ATCC 700221; details: E. faecium ATCC 700221
[14] = system: Streptococcus pneumoniae ATCC 49619; details: S. pneumoniae ATCC 49619
S. aureus ATCC 29213 = details: S. aureus ATCC 29213

Substance	MIC E. coli ATCC 25922 [1] [mg/L]	Broad-spectrum activity E. faecalis (ATCC 51575) [2]	Broad-spectrum activity B. subtilis (ATCC-6633) (B. subtilis (ATCC-6633))	Broad-spectrum activity E. faecalis (ATCC 29212) [3]	MIC E. coli (ATCC BAA-2452) (E. coli (ATCC BAA-2452)) [mg/L]	Broad-spectrum activity S. pneumoniae (ATCC 51938) [4]	MIC P. aeruginosa (ATCC BAA-1744) [5] [mg/L]	Broad-spectrum activity B. cereus (ATCC-13061) (B. cereus (ATCC-13061))	MIC P. aeruginosa ATCC 27883 [6] [mg/L]	MIC K. pneumonia (ATCC BAA-1705) [7] [mg/L]	MIC A. baumannii (ATCC BAA-1605) [8] [mg/L]	MIC K. pneumonia (ATCC 13883) [9] [mg/L]	MIC P. aeruginosa (ATCC 10145) [10] [mg/L]	Broad-spectrum activity E. faecium (ATCC 27270) [11]	MIC MRSA ATCC BAA-1556 [12] [mg/L]	Broad-spectrum activity E. faecium (ATCC 700221) [13]	Broad-spectrum activity S. pneumoniae (ATCC 49619) [14]	MIC S. aureus ATCC 29213 (S. aureus ATCC 29213) [mg/L]
c[Arg-Arg-Arg-Arg-dip-Dip-Dip] [IFX-062]	12.5	12.5	1.5	6.2	6.2	12.5	12.5	3.1	6.2	12.5	6.2	50	25	3.1	3.1	3.1	50	3.1
c[Arg-Arg-Arg-Arg-dip-Trp-Dip] [IFX-090]	12.5	12.5	1.5	6.2	12.5	12.5	25	6.2	12.5	25	12.5	50	25	3.1	3.1	6.2	25	3.1
c[Arg-Arg-Arg-Arg-dip-Trp-dip] [IFX-098]	12.5	12.5	1.5	6.2	25	25	25	3.1	12.5	25	12.5	50	25	3.1	1.5	6.2	50	3.1
c[Arg-Arg-Arg-Arg-dip-trp-dip] [IFX-100]	12.5	12.5	1.5	6.2	25	12.5	25	3.1	12.5	25	12.5	> 50	50	3.1	1.5	6.2	25	1.5
c[Arg-Arg-Arg-Arg-naI-trp-naI] [IFX-143]	16	12.5	3.1	6.2	25	12.5	25	6.2	64	25	12.5	> 50	50	3.1	3.1	3.1	50	1.5
